Source: US20240298601A1, “SESAME PLANTS RESISTANT TO ACETOLACTATE SYNTHASE-INHIBITING HERBICIDES, COMPOSITIONS AND METHODS FOR PRODUCING SAME” (Yissum Research Development Company of The Hebrew …, priority 2021, published 2024)

Legend:
[1] = tested on: wild type (S-416) sesame plants; assay: Herbicides dose-response assay (post-emergence, pots), wild type; format: in vivo, Sesamum indicum; details: for ED50 WT: herbicide rate reducing plant growth (shoot DW) by 50%, 16 DAT, sprayed at two true leaves, n=5; for reduction in shoot DW, WT / reduction in shoot length, WT: under the recommended dose; for response of WT plants in dose-response assay: increasing doses
[2] = tested on: SiRM plants (mutant SiALS Ala188Val); details: for ED50 SiRM: herbicide rate reducing plant growth (shoot DW) by 50%, 16 DAT, n=5, calculated from fitted curve, for Imazamox above the tested rates; for RI (resistance index): resistance/susceptible ratio of the ED50 (SiRM vs WT); for reduction in shoot DW, SiRM / reduction in shoot length, SiRM: under the recommended dose; for dose up to which SiRM plants were not affected: post-emergence dose-response; for response of SiRM plants in dose-response assay: increasing doses
[3] = tested on: hybrid (F1) plants (SiRM x WT); assay: Physiological characterization of F1 hybrid plants under Imazamox; format: in vivo, Sesamum indicum; details: Imazamox 48 g a.i. h^−1
Procedure: (§1) A cross between SiRM (♂) and the WT (♀) was made to produce F1 seeds. […] The pots were placed in a growth chamber under long-day conditions (16/8 light/dark and 32/25° C.). […] Plants were characterized daily for canopy coverage (Canopeo software, Oklahoma State University, USA; Patrignani and Ochsner, 2015. Agronomy Journal, 107:2312-2320) and gas exchange (IRGA 6800; Li-Cor, Lincoln, Nebraska, USA), over the next 11 days. At the end of the experiment, 21 DAT, the aboveground material was harvested, oven-dried (80° C., 48 h), and weighed to obtain shoot DW.

[4] = tested on: WT (S-416) plants; assay: Physiological characterization under Imazamox, WT parental line; format: in vivo, Sesamum indicum; details: Imazamox 48 g a.i. h^−1
Procedure: as §1

[5] = tested on: SiRM plants; assay: Physiological characterization under Imazamox, SiRM parental line; format: in vivo, Sesamum indicum; details: Imazamox 48 g a.i. h^−1
Procedure: as §1

[6] = tested on: Amaranthus palmeri; assay: Imazamox post-emergence field experiment, weed control; format: in vivo; details: Imazamox 40 g a.i. h^−1, non-treated ~12 plants m^−1
Procedure: The experiment was conducted in the Experimental Farm of the Hebrew University of Jerusalem in Rehovot, Israel ([…]; 54 m above sea level). The soil at this location is brown-red, degrading, sandy soil (Rhodoxeralf), composed of 76% sand, 8% silt, and 16% clay. […] Each plot consisted of a 5-meter row, with a sowing density of 7-plants m^−1 (n=6). At the end of the season, the survival rate was analyzed (number of plants per plot) and the plants in the plot were harvested. Samples were threshed using a laboratory thresher (Wintersteiger AG LD 350, Austria) and after sifting, the seeds were weighed to obtain seed yield.
To test the efficiency of Imazamox for weed control, Amaranthus palmeri was used as a model. Seeds of A. palmeri were sown (20-seeds m-1) as competitor weeds alongside the two sesame lines described above. As a negative control, plots that were not treated were used. At the end of the experiment, the number of A. palmeri plants per plot was counted.

[7] = tested on: WT (S-416) sesame; assay: Imazamox post-emergence field experiment, WT sesame; format: in vivo, Sesamum indicum; details: Imazamox 40 g a.i. h^−1
[8] = tested on: SiRM plants; assay: Imazamox post-emergence field experiment, SiRM sesame; format: in vivo, Sesamum indicum
[9] = tested on: WT plants (S-416); assay: Imazamox spraying for resistance validation, WT; format: in vivo, Sesamum indicum; details: Imazamox 48 g a.i. ha^−1; seven days after spraying
[10] = tested on: mutant plants (SiRM); assay: Imazamox spraying for resistance validation, M3 mutant plants; details: Imazamox 48 g a.i. ha^−1; seven days after spraying
Description: Genomic DNA was extracted using the CTAB protocol, with modification for sesame as described before (Teboul et al., 2020. Genes, 11, 1221). To test possible mutation(s) in the SiALS gene, a targeted sequencing was applied using four primer pairs covering the whole gene sequence (Table 1) according to the sequenced sesame genome (Zhongzhi No. 13; Wang et al., 2014. Genome Biology, 15:1-13). The gene was amplified, and PCR products were sequenced (HUJI genome center, Israel). Sequence alignment was performed using the Clustal Omega tool (Madeira et al., 2019. Nucleic Acids Research, 47:636-641).

[11] = tested on: WT plants; assay: Field observation after Imazapic recommended dose, WT; format: in vivo, Sesamum indicum; details: Imazapic 48 g a.i. h^−1
[12] = tested on: SiRM plants; assay: Field observation after Imazapic recommended dose, SiRM; format: in vivo, Sesamum indicum; details: Imazapic 48 g a.i. h^−1
[13] = tested on: WT plants; assay: Imazapic pre-emergence pot experiment, WT; format: in vivo, Sesamum indicum
[14] = tested on: SiRM plants; assay: Roots development under increasing dosages of Imazapic; format: in vivo, Sesamum indicum; details: pre-emergence; 24, 48, 96 and 192 g a.i. ha^−1; sandy soil; 14 DAT
[15] = tested on: Abutilon Theophrastus; assay: 2021 field trial, Imazapic pre-emergence, weed control; format: in vivo; details: pre-emergence Imazapic 48 g a.i. ha^−1; field 2021
Procedure: (§2) An additional field experiment was conducted during the summer of 2021 at the Experimental Farm of the Hebrew University of Jerusalem, Rehovot, Israel. A split-plot random block design with six replicates was applied. Treatments included: weed-free plots (i.e., manual weeding), untreated control (i.e., herbicide-free treatment) and application of Imazapic (48 g a.i. ha^−1) pre-germination. The plot size was 3.6 m×0.8 m (10 cm between plants) with two rows per plot. To evaluate the efficacy of weed control, two weeds were sown on the sesame sowing lines (Amaranthus Palmeri, 500 seeds per plot, and Abutilon Theophrastus, 70 seeds per plot). Phenological characterization was conducted during the growing season for the flowering date, the number of brunches per plant and the height to the first capsule. At the end of the growing season, the number of weeds per plot was counted and weeds were harvested for dry weight measurements. Sesame plants were harvested 1 m from the middle of the plot, samples were threshed using a laboratory thresher (Wintersteiger AG LD 350, Austria), and after sifting, the seeds were weighed to obtain seed yield.

[16] = tested on: Amaranthus palmeri; assay: as above; format: in vivo; details: pre-emergence Imazapic 48 g a.i. ha^−1; field 2021
Procedure: as §2

[17] = tested on: resistant plants of the invention (SiRM); assay: 2021 field trial, Imazapic pre-emergence, sesame performance; format: in vivo, Sesamum indicum; details: pre-emergence Imazapic 48 g a.i. ha^−1
Procedure: as §2

[18] = tested on: SiRM plants; details: pre-emergence

COc1cc(OC)nc(NC(=O)NS(=O)(=O)c2ncccc2OCC(F)(F)F)n1 [Trifloxysulfuron, 1-(4,6-dimethoxypyrimidin-2-yl)-3-[3-(2,2,2-trifluoroethoxy)pyridin-2-yl]sulfonylurea]
ED50 WT [1]: 33 g a.i. ha^−1 | reduction in shoot DW, WT [1]: 63% | reduction in shoot length, WT [1]: 74% | ED50 SiRM [2]: 69 g a.i. ha^−1 | RI (resistance index) [2]: 2 | reduction in shoot DW, SiRM [2]: 18% | reduction in shoot length, SiRM [2]: 7%

COc1cc(OC)nc(NC(=O)NS(=O)(=O)c2cc(NC=O)ccc2C(=O)N(C)C)n1 [Foramsulfuron, 2-[(4,6-dimethoxypyrimidin-2-yl)carbamoylsulfamoyl]-4-formamido-N,N-dimethylbenzamide]
ED50 WT [1]: 41 g a.i. ha^−1 | reduction in shoot DW, WT [1]: 25% | reduction in shoot length, WT [1]: 64% | ED50 SiRM [2]: 165 g a.i. ha^−1 | RI (resistance index) [2]: 3.95 | reduction in shoot DW, SiRM [2]: 8% | reduction in shoot length, SiRM [2]: 58%

CCc1cnc(C2=NC(C)(C(C)C)C(=O)N2)c(C(=O)O)c1 (stereo not shown) [Imazethapyr, 5-ethyl-2-(4-methyl-5-oxo-4-propan-2-yl-1H-imidazol-2-yl) pyridine-3-carboxylic acid]
effect on WT plants at field recommended dosage ([1]; 20 g a.i. h^−1): deadly for the plants | ED50 WT [1]: 3.7 g a.i. ha^−1 | state of SiRM plants at the highest dosage ([2]; 160 g a.i. h^−1): viable and fully recovered | ED50 SiRM [2]: 161 g a.i. ha^−1 | dose up to which SiRM plants were not affected [2]: ≤ 80 g a.i. h^−1 | RI (resistance index) [2]: 48

COCc1cnc(C2=NC(C)(C(C)C)C(=O)N2)c(C(=O)O)c1 (stereo not shown) [Imazamox, 5-(methoxymethyl)-2-(4-methyl-5-oxo-4-propan-2-yl-1H-imidazol-2-yl) pyridine-3-carboxylic acid]
ED50 WT [1]: 18 g a.i. ha^−1 | dose at which WT plants already exhibited visual symptoms and reduced shoot DW ([1]; post-emergence dose-response): 6 g a.i. ha^−1 | recovery of assimilation, hybrid plants [3]: after six days they fully recovered | reduction in plant height, hybrid plants ([3]; 21 DAT): ~40% | reduction in shoot DW, hybrid plants ([3]; 21 DAT): ~35% | nodes to the first flower, hybrid plants treated ([3]; UTC 5.6): 11.4 nodes | nodes length, hybrid plants treated ([3]; UTC 8.0): 2.4 cm | height of first flower bud, hybrid plants treated ([3]; UTC 44.6): 27.6 cm | state of WT plants at the end of the experiment ([4]; 21 DAT): fully eradicated | assimilation rate of WT ([4]; after 48 h): < 20% | state of SiRM plants at the end of the experiment ([5]; 21 DAT): showed no effect of Imazamox treatment | recovery of assimilation, SiRM ([5]; after 48 h): recover completely and did not differ from the UTC plants | number of A. palmeri plants [6]: ~0 A. palmeri plants per meter plot | reduction in WT sesame stand ([7]; field, P<0.0001): 75% | seed yield per plant, WT ([7]; weed-free control 3.6, P=0.0015): 0.93 g per plant | seed yield per plot, WT ([7]; weed-free control 19, P=0.0002): 1.6 g | seed yield per plot, SiRM ([8]; Imazamox 40 g a.i. h^−1, control 16.7, P=0.02): 31.5 g | effect on the SiRM plots stand ([8]; Imazamox 40 g a.i. h^−1, field): no significant effect | seed yield per plant, SiRM ([8]; Imazamox 40 g a.i. h^−1, weed-free control 2.88, P=0.011): 6.05 g per plant | yield of SiRM compared to the corresponding weed-free UTC ([8]; field conditions, post-emergence): two-fold greater yield | visual symptoms, WT [9]: reduced growth and meristem damages | increment in shoot DW compared with untreated control plants ([2]; SiRM, low doses of 3, 6 and 12 g a.i. h^−1): 50% | ED50 SiRM [2]: 823 g a.i. ha^−1 | RI (resistance index) [2]: 45 | visual symptoms, SiRM [10]: did not display any visual symptoms

Cc1cnc(C2=NC(C)(C(C)C)C(=O)N2)c(C(=O)O)c1 (stereo not shown) [Imazapic, 5-methyl-2-(4-methyl-5-oxo-4-propan-2-yl-1H-imidazol-2-yl) pyridine-3-carboxylic acid]
reduction in growth of WT ([1]; at 6 g a.i. h^−1, P=0.0055): 18% | ED50 WT [1]: 236 g a.i. ha^−1 | state of WT plants in the field [11]: dead already 10 DAT | state of SiRM plants in the field [12]: only slightly affected and showed a five-day delay in shoot development and flowering time | development of WT plants ([13]; 144 g a.i. h^−1): fully controlled and did not develop beyond the growth of the cotyledons | canopy coverage, WT ([13]; 144 g a.i. h^−1, 14 days after sowing, control 2.23, P=0.0008): 0.27 % of coverage | root length, WT ([13]; 144 g a.i. h^−1, control 82): 5 mm | root volume, SiRM [14]: didn't show any significant differences in root volume | control of Abutilon [15]: didn't develop beyond the cotyledons | control of A. Palmeri [16]: didn't emerge (full-control) | height to the first capsule [17]: reduced height to the first capsule | effect on growth of the resistant plants ([17]; compared with weed-free control): no deleterious effects | rate at which SiRM exhibited severe damage symptoms ([2]; 16X): 768 g a.i. h^−1 | ED50 SiRM [2]: 563 g a.i. ha^−1 | dose up to which SiRM plants were not affected [2]: ≤ 96 g a.i. h^−1 | RI (resistance index) [2]: 2.4 | survival rate, SiRM ([18]; 48, 96 and 144 g a.i. h^−1, clay soil): 100% | development of SiRM plants ([18]; 144 g a.i. h^−1): developed normally without any visual differences compared to the untreated control | canopy coverage, SiRM ([18]; 144 g a.i. h^−1, 14 days after sowing): maintained similar values | root length, SiRM ([18]; 144 g a.i. h^−1, control 72, P=0.106): 85 mm

COc1cc(OC)nc(Sc2cccc(Cl)c2C(=O)O)n1 [Pyrithiobac sodium, sodium;2-chloro-6-(4,6-dimethoxypyrimidin-2-yl)sulfanylbenzoate]
ED50 WT [1]: 9.8 g a.i. ha^−1 | response of WT plants in dose-response assay [1]: lethal for both lines | ED50 SiRM [2]: 202 g a.i. ha^−1 | response of SiRM plants in dose-response assay [2]: able to survive up to the recommended dose | RI (resistance index) [2]: 20.5 | reduction in shoot length, SiRM [2]: 66%

CCCOc1nn(C(=O)NS(=O)(=O)c2ccccc2C(=O)OC)c(=O)n1C [Propoxycarbazone, methyl 2-[(4-methyl-5-oxo-3-propoxy-1,2,4-triazole-1-carbonyl)sulfamoyl]benzoate]
ED50 WT [1]: 12 g a.i. ha^−1 | response of WT plants in dose-response assay [1]: severe response of the WT plants already at a low dose of ⅛X | ED50 SiRM [2]: 96 g a.i. ha^−1 | response of SiRM plants in dose-response assay [2]: able to maintain growth (and develop flowering buds) up to the recommended dose | RI (resistance index) [2]: 8

COc1ncc(F)c2nc(S(=O)(=O)Nc3c(F)cccc3F)nn12 [Florasulam, N-(2,6-difluorophenyl)-8-fluoro-5-methoxy-[1,2,4]triazolo[1,5-c]pyrimidine-2-sulfonamide]
ED50 WT [1]: 31 g a.i. ha^−1 | ED50 SiRM [2]: 62 g a.i. ha^−1 | RI (resistance index) [2]: 2
